Measurements: patent US20030134859A1 (SANKYO COMPANY, LIMITED, priority 2000, published 2003)

Tested on: Mouse preadipocyte strain 3T3-L1
Test: Inhibition of differentiation as an indication of acetic acid uptake
Type: cell-based
Conditions: control (0.01% dimethylsulfoxide) = 100%; for activity at 0.1 µM: Mus musculus, 3T3-L1, 0.1 μM test substance, read-out: Rate of Uptake (%) of [2-14C] acetic acid
In short: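 Confluent 3T3-L1 cells induced to differentiate for 4 days (insulin, IBMX, dexamethasone, 5% FBS) with test compound at 0.1 μM final or 0.01% DMSO, then 2 days in insulin maintenance medium, at 37 °C, 10% CO2. [2-14C]acetic acid uptake over 1 hr counted by scintillation; expressed as % of DMSO control.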

With `O=C(Nc1nc(-c2cccc3ccccc23)cs1)c1cc([N+](=O)[O-])ccc1Cl` [Example 41, N-[4-(1-Naphthyl)thiazol-2-yl]-(2-chloro-5-nitrophenyl)carboxamide] the activity at 0.1 µM was 53.8%.

Work on `CCc1ccc(-c2csc(NC(=O)c3cc([N+](=O)[O-])ccc3Cl)n2)cc1` [Example 44, N-[4-(4-Ethylphenyl)thiazol-2-yl]-(2-chloro-5-nitrophenyl)carboxamide] yielded an activity at 0.1 µM of 67.6%.

In the case of `Cc1ccc(-c2nc(NC(=O)c3cc([N+](=O)[O-])ccc3Cl)sc2C)cc1Cl` [Example 46, N-[4-(3-Chloro-4-methylphenyl)-5-methylthiazol-2-yl]-(2-chloro-5-nitrophenyl)carboxamide], the activity at 0.1 µM is reported as 67%.

`Cc1nc(NC(=O)c2cc([N+](=O)[O-])ccc2Cl)sc1C` [Example 47] was tested, and the activity at 0.1 µM was 63.1%.

Work on `O=C(Nc1cccnc1)c1cc([N+](=O)[O-])ccc1Cl` [Example 50, N-(3-Pyridyl)-(2-chloro-5-nitrophenyl)carboxamide] yielded an activity at 0.1 µM of 61.4%.

With `Cc1cccc(NC(=O)c2cc([N+](=O)[O-])ccc2Cl)n1` [Example 51, N-(6-Methylpyridin-2-yl)-(2-chloro-5-nitrophenyl)carboxamide] the activity at 0.1 µM was 57.5%.

With `Cc1ccc(NC(=O)c2cc([N+](=O)[O-])ccc2Cl)nc1` [Example 52, N-(5-Methylpyridin-2-yl)-(2-chloro-5-nitrophenyl)carboxamide] the activity at 0.1 µM was 52.3%.

For `O=C(Nc1ccc2c3c(cccc13)CC2)c1cc([N+](=O)[O-])ccc1Cl` [Example 54, N-(Acenaphthen-5-yl)-(2-chloro-5-nitrophenyl)carboxamide], the activity at 0.1 µM was 51.3%.

In the case of `O=C(Nc1cccc2cccnc12)c1cc([N+](=O)[O-])ccc1Cl` [Example 57, N-(8-Quinolinyl)-(2-chloro-5-nitrophenyl)carboxamide], the activity at 0.1 µM is reported as 58.4%.

For `Cc1ccnc(NC(=O)c2cc([N+](=O)[O-])ccc2Cl)n1` [Example 65, N-(4-Methylpyrimidin-2-yl)-(2-chloro-5-nitrophenyl)carboxamide], the activity at 0.1 µM was 63.4%.

In the case of `COC(=O)c1sccc1NC(=O)c1cc([N+](=O)[O-])ccc1Cl` [Example 66, N-(2-Methoxycarbonylthiophen-3-yl)-(2-chloro-5-nitrophenyl)carboxamide], the activity at 0.1 µM is reported as 70.7%.

For `Cc1cc(Cl)nc(NC(=O)c2cc([N+](=O)[O-])ccc2Cl)n1` [Example 78, N-(4-Chloro-6-methylpyrimidin-2-yl)-(2-chloro-5-nitrophenyl)carboxamide], the activity at 0.1 µM was 68.2%.

`Cn1c(NC(=O)c2cc([N+](=O)[O-])ccc2Cl)nc2ccccc21` [Example 82, N-(1-Methylbenzimidazol-2-yl)-(2-chloro-5-nitrophenyl)carboxamide] showed an activity at 0.1 µM of 83%.

Work on `O=C(Nc1nncs1)c1cc([N+](=O)[O-])ccc1Cl` [Example 85, N-(1,3,4-Thiadiazol-2-yl)-(2-chloro-5-nitrophenyl)carboxamide] yielded an activity at 0.1 µM of 67.1%.

In the case of `O=C(Nc1cccc2nsnc12)c1cc([N+](=O)[O-])ccc1Cl` [Example 86, N-(2,1,3-Benzothiazol-4-yl)-(2-chloro-5-nitrophenyl)carboxamide], the activity at 0.1 µM is reported as 51.7%.

`CC(C)(C)OC(=O)Nc1ccc(-c2ccc(NC(=O)c3cc([N+](=O)[O-])ccc3Cl)cc2)cc1` [Example 87, N-[4-[4-(tert-Butoxycarbonylamino)phenyl]phenyl]-(2-chloro-5-nitrophenyl)carboxamide] gave an activity at 0.1 µM of 57.1%.

`O=C(Nc1ccc(S(=O)(=O)Nc2nccs2)cc1)c1cc([N+](=O)[O-])ccc1Cl` [Example 96, N-[4-(Thiazol-2-yl)aminosulfonyl]phenyl-(2-chloro-5-nitrophenyl)carboxamide] gave an activity at 0.1 µM of 98.7%.

Work on `O=C(Nc1ccc(S(=O)(=O)Nc2ccc(Cl)nn2)cc1)c1cc([N+](=O)[O-])ccc1Cl` [Example 102, N-[4-[(6-Chloropyridazin-3-yl)aminosulfonyl]phenyl]-(2-chloro-5-nitrophenyl)carboxamide] yielded an activity at 0.1 µM of 76.8%.

With `COc1cnc(NS(=O)(=O)c2ccc(NC(=O)c3cc([N+](=O)[O-])ccc3Cl)cc2)nc1` [Example 105, N-[4-[(5-Methoxypyrimidin-2-yl)aminosulfonyl]phenyl]-(2-chloro-5-nitrophenyl)carboxamide] the activity at 0.1 µM was 89.4%.

`N=C(N)NS(=O)(=O)c1ccc(NC(=O)c2cc([N+](=O)[O-])ccc2Cl)cc1` [Example 106, N-[4-(Amidinoaminosulfonyl)phenyl]-(2-chloro-5-nitrophenyl)carboxamide] showed an activity at 0.1 µM of 82%.

`O=C(Nc1ccc(S(=O)(=O)Nc2ccnn2-c2ccccc2)cc1)c1cc([N+](=O)[O-])ccc1Cl` [Example 108, N-[4-[(2-Phenyl-(2H)-pyrazol-3-yl)aminosulfonyl]phenyl]-(2-chloro-5-nitrophenyl)carboxamide] gave an activity at 0.1 µM of 87.7%.

In the case of `O=C(Nc1nnc(-c2ccccc2)s1)c1cc([N+](=O)[O-])ccc1Cl` [Example 110, N-(5-Phenyl-[1,3,4]thiadiazol-2-yl)-(2-chloro-5—nitrophenyl)carboxamide], the activity at 0.1 µM is reported as 84.6%.

`O=C(Nc1nc(-c2ccc(F)c(F)c2)cs1)c1cc([N+](=O)[O-])ccc1Cl` [Example 111, N-[4-(3,4-Difluorophenyl)thiazol-2-yl]-(2-chloro-5-nitrophenyl)carboxamide] showed an activity at 0.1 µM of 61.2%.

In the case of `Cc1ccc(S(=O)(=O)Nc2ccc(NC(=O)c3cc([N+](=O)[O-])ccc3Cl)cc2)cc1` [Example 116, N-[4-(4-Toluenesulfonylamino)phenyl]-(2-chloro-5-nitrophenyl)carboxamide], the activity at 0.1 µM is reported as 95.1%.

In the case of `CC(=O)Nc1ccc(NC(=O)c2cc([N+](=O)[O-])ccc2Cl)cc1` [Example 117, N-(4-Acetylaminophenyl)-(2-chloro-5-nitrophenyl)carboxamide], the activity at 0.1 µM is reported as 87%.

Work on `O=C(Nc1ccc(NC(=O)c2cc([N+](=O)[O-])ccc2Cl)cc1)c1ccccc1` [Example 119, N-(4-Benzoylaminophenyl)-(2-chloro-5-nitrophenyl)carboxamide] yielded an activity at 0.1 µM of 65.7%.

Compound `O=C(Nc1ccc(S(=O)(=O)Nc2cccnc2)cc1)c1cc([N+](=O)[O-])ccc1Cl` [Example 178] has an activity at 0.1 µM of 66.2%.

For “N-[4-(Pyrrolidinylsulfonyl)phenyl]-(2-chloro-5-nitrophenyl)carboxamide [Example 152]”, the “Rate of Uptake (%) of [2-14C] acetic acid” value (0.1 μM test substance) was 69.6%.
